# Earlier results in patent publication US9682072B2, “Compositions and methods for treatment of lung dysfunction” (Children's Hospital Medical Center, priority 2015, dated 2017).
# Columns and labels:
# [1] = system: ovalbumin-induced lung inflammation; conditions: mouse, in vivo
# FOXM1 = molecular target: T1, FOXM1 (Homo sapiens, UniProt Q08050)
# T1 sequence (Q08050 1-763): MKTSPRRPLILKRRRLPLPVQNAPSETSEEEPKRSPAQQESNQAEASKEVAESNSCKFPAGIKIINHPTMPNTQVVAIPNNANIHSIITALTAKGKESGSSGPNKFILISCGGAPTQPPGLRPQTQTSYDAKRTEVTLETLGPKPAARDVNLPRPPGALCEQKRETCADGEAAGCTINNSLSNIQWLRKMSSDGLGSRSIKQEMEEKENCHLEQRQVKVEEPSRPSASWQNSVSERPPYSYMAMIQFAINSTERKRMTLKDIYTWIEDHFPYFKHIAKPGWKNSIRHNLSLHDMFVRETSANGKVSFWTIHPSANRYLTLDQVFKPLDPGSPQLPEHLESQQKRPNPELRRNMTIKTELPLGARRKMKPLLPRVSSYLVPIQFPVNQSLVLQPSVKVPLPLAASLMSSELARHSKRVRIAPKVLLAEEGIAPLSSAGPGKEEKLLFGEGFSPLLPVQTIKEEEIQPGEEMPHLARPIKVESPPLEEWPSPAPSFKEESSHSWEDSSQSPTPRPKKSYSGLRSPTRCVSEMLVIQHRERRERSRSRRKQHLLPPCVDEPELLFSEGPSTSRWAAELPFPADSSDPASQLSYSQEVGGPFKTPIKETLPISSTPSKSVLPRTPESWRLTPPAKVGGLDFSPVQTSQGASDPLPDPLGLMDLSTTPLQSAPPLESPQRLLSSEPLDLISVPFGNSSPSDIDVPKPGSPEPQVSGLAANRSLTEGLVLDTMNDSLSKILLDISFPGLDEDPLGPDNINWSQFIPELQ
binding of FOXM1 to its target DNA (FOXM1),SMILES,ovalbumin-induced lung inflammation [1]
–,N#CC(=C(/N)Sc1ccccc1N)/C(C#N)=C(\N)Sc1ccccc1N [Compound U0126],diminished
inhibits,Nc1c(C(=O)Nc2ccc(F)cc2)sc2nc(-c3cccs3)cc(C(F)(F)F)c12 [FDI-6],–
